melting point: 178 to 180 °C
SMILES: O=C(O)CCNC(=O)c1ccc(N(Cc2ccc(C3=CCCCC3)cc2)C(=O)/C=C/c2cccc(OC(F)(F)F)c2)cc1 [Example 211, 3-(4-{(4-Cyclohex-1-enylbenzyl)-[3-(3-trifluoromethoxyphenyl)acryloyl]amino}benzoylamino) -propionic acid]
